In patent US20100105651A1, “ANTAGONISTS OF SNS SODIUM CHANNELS” (priority 2005, published 2010):

Molecular target: T1, human NaV1.8 (hNaV1.8) ion channel (Homo sapiens, UniProt Q9Y5Y9)
T1 construct: expressed in transfected cells
Test: Inhibition of Human NaV1.8 stably expressed in SH-SY-5Y cells (membrane potential dye fluorescence assay)
Assay type: cell-based
Details: SH-SY-5Y cells stably expressing hNaV1.8; FLIPR membrane potential dye; 10 μM pyrethroid, 250 nM TTX; test range 100 μM-0.05 μM; read-out: hNav1.8 IC50

T1 sequence (Q9Y5Y9 whole entry): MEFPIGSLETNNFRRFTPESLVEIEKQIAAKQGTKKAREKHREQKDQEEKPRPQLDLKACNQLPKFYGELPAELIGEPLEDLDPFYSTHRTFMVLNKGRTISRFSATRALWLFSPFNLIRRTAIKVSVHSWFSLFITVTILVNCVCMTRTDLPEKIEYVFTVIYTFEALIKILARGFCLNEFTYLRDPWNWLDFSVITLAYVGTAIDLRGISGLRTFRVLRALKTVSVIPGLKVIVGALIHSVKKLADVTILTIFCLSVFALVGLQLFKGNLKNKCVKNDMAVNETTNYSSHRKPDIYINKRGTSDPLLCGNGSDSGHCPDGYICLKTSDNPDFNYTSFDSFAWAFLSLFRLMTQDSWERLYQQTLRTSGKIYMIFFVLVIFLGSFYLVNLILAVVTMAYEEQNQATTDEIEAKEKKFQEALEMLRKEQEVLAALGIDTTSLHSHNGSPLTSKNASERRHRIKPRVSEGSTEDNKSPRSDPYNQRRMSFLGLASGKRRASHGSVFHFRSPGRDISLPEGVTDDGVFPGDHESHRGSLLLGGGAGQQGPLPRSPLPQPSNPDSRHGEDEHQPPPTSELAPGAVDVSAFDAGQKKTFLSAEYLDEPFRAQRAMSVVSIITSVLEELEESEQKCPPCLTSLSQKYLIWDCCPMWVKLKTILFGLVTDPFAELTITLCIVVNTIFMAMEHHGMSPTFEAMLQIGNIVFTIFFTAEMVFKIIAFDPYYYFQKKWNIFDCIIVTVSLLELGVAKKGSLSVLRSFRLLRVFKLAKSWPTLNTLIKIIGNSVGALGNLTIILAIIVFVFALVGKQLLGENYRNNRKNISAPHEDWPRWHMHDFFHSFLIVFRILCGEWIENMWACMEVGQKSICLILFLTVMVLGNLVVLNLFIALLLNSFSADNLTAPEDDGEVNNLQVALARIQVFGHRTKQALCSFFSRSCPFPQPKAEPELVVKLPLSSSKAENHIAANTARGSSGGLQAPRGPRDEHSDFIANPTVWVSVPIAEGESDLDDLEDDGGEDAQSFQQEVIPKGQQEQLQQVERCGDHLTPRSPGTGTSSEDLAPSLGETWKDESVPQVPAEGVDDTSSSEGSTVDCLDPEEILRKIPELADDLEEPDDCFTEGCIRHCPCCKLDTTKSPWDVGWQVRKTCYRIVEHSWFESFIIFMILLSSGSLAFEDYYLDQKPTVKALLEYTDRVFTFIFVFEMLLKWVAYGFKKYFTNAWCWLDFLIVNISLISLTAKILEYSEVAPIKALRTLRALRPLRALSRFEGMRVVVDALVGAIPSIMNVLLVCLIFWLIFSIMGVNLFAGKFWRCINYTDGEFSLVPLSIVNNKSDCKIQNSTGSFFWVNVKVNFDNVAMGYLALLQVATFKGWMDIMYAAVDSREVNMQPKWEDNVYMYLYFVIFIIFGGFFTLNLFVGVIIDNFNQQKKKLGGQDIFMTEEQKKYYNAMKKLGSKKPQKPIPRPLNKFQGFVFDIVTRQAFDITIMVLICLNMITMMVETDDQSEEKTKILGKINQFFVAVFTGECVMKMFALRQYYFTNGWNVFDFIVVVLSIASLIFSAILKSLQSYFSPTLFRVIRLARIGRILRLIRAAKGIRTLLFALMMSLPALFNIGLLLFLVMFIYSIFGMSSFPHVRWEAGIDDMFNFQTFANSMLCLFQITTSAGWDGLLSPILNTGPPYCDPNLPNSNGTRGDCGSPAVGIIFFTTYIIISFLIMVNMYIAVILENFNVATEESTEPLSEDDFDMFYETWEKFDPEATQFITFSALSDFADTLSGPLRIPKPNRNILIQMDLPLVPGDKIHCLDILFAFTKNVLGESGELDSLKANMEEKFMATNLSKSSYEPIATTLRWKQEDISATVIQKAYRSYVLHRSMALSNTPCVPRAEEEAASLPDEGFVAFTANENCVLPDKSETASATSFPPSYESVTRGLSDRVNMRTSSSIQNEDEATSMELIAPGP

First: CC(c1ccc(F)cc1)N(C)C1CN(C(=O)Nc2cc(C(F)(F)F)ccc2F)C1 (stereo not shown) [Example 81, 3-{[1-(4-Fluoro-phenyl)-ethyl]-methyl-amino}-azetidine-1-carboxylic acid (2-fluoro-5-trifluoromethyl-phenyl)-amide]
Second: CC(c1ccc(F)cc1)N(C)C1CN(C(=O)Nc2ccc(F)c(C(F)(F)F)c2)C1 (stereo not shown) [Example 83, 3-{[1-(4-Fluoro-phenyl)-ethyl]-methyl-amino}-azetidine-1-carboxylic acid (4-fluoro-3-trifluoromethyl-phenyl)-amide]
The IC50 of the first is 2.1-fold higher: 8.37 µM for the first, 3.93 µM for the second.

`CC(c1ccc(F)cc1)N(C)C1CN(C(=O)Nc2cc(F)cc(C(F)(F)F)c2)C1` (stereo not shown) [Example 82, 3-{[1-(4-Fluoro-phenyl)-ethyl]-methyl-amino}-azetidine-1-carboxylic acid (3-fluoro-5-trifluoromethyl-phenyl)-amide] and `CC(c1ccc(F)cc1)N(C)C1CN(C(=O)Nc2cccc(C(F)(F)F)c2)C1` (stereo not shown) [Example 95, 3-{[1-(4-Fluoro-phenyl)-ethyl]-methyl-amino}-azetidine-1-carboxylic acid (3-trifluoromethyl-phenyl)-amide] are within 1.5-fold of each other in IC50: 5.73 µM for the first, 4.55 µM for the second.

Going from `CC(c1ccc(F)cc1)N(C)C1CN(C(=O)Nc2cccc(C(F)(F)F)c2F)C1` (stereo not shown) [Example 84, 3-{[1-(4-Fluoro-phenyl)-ethyl]-methyl-amino}-azetidine-1-carboxylic acid (2-fluoro-3-trifluoromethyl-phenyl)-amide] to `CC(c1ccc(F)cc1)N(C)C1CN(C(=O)Nc2ccc(OC(F)(F)F)cc2)C1` (stereo not shown) [Example 98, 3-{[1-(4-Fluoro-phenyl)-ethyl]-methyl-amino}-azetidine-1-carboxylic acid (4-trifluoromethoxy-phenyl)-amide], the IC50 falls from 5.8 µM to 3.19 µM (1.8-fold).

First: CCCCOc1cccc(NC(=O)N2CC(N(C)C(C)c3ccc(F)cc3)C2)c1 (stereo not shown) [Example 85, 3-{[1-(4-Fluoro-phenyl)-ethyl]-methyl-amino}-azetidine-1-carboxylic acid (3-butoxy-phenyl)-amide]
Second: CCCCOc1ccc(NC(=O)N2CC(N(C)C(C)c3ccc(F)cc3)C2)cc1 (stereo not shown) [Example 86, 3-{[1-(4-Fluoro-phenyl)-ethyl]-methyl-amino}-azetidine-1-carboxylic acid (4-butoxy-phenyl)-amide]
The IC50 of the first is 2.4-fold lower: 1.46 µM for the first, 3.53 µM for the second. The first is the more potent here.

Going from `CCCCOc1cccc(NC(=O)N2CC(N(C)C(C)c3ccccc3C)C2)c1` (stereo not shown) [Example 87, 3-[Methyl-(1-o-tolyl-ethyl)-amino]-azetidine-1-carboxylic acid (3-butoxy-phenyl)-amide] to `CCCCOc1ccc(NC(=O)N2CC(N(C)C(C)c3ccccc3C)C2)cc1` (stereo not shown) [Example 89, 3-[Methyl-(1-o-tolyl-ethyl)-amino]-azetidine-1-carboxylic acid (4-butoxy-phenyl)-amide], the IC50 falls from 1.03 µM to 0.58 µM (1.8-fold). The second is the more potent here.

First: CC(NC1CN(C(=O)Nc2ccc(Oc3ccccc3)cc2)C1)c1ccccc1C(F)(F)F (stereo not shown) [Example 88, 3-[1-(2-Trifluoromethyl-phenyl)-ethylamino]-azetidine-1-carboxylic acid (4-phenoxy-phenyl)-amide]
Second: CC(c1ccccc1C(F)(F)F)N(C)C1CN(C(=O)Nc2ccc(Oc3ccccc3)cc2)C1 (stereo not shown) [Example 93, 3-{Methyl-[1-(2-trifluoromethyl-phenyl)-ethyl]-amino}-azetidine-1-carboxylic acid (4-phenoxy-phenyl)-amide]
The IC50 of the first is 1.5-fold lower: 1.18 µM for the first, 1.8 µM for the second. The first is the more potent here.

First: CC(c1ccc(Oc2ccccc2)cc1)N(C)C1CN(C(=O)Nc2ccc(C(F)(F)F)cc2)C1 (stereo not shown) [Example 90, 3-{Methyl-[1-(4-phenoxy-phenyl)-ethyl]-amino}-azetidine-1-carboxylic acid (4-trifluoromethyl-phenyl)-amide]
Second: CC(c1ccc(F)cc1)N(C)C1CN(C(=O)Nc2ccc(Oc3ccccc3)cc2)C1 (stereo not shown) [Example 91, 3-{[1-(4-Fluoro-phenyl)-ethyl]-methyl-amino}-azetidine-1-carboxylic acid (4-phenoxy-phenyl)-amide]
The IC50 of the first is 2.1-fold higher: 1.43 µM for the first, 0.69 µM for the second. The second is the more potent here.

Going from `CC(c1ccc(F)cc1Cl)N(C(=O)C(F)(F)F)C1CN(C(=O)Nc2ccc(Oc3ccccc3)cc2)C1` (stereo not shown) [Example 92, 3-[[1-(2-Chloro-4-fluoro-phenyl)-ethyl]-(2,2,2-trifluoro-acetyl)-amino]-azetidine-1-carboxylic acid (4-phenoxy-phenyl)-amide] to `Cc1cc(F)ccc1C(C)N(C)C1CN(C(=O)Nc2ccc(Oc3ccccc3)cc2)C1` (stereo not shown) [Example 117, 3-{[1-(4-Fluoro-2-methyl-phenyl)-ethyl]-methyl-amino}-azetidine-1-carboxylic acid (4-phenoxy-phenyl)-amide], the IC50 falls from 15.1 µM to 0.89 µM (17-fold). The second is the more potent here.

Going from `CC(NC1CN(C(=O)Nc2ccc(Oc3ccc(F)cc3)cc2)C1)c1ccccc1Cl` (stereo not shown) [Example 94, 3-[1-(2-Chloro-phenyl)-ethylamino]-azetidine-1-carboxylic acid [4-(4-fluoro-phenoxy)-phenyl]-amide] to `Cc1ccccc1C(C)NC1CN(C(=O)Nc2ccc(Oc3ccc(F)cc3)cc2)C1` (stereo not shown) [Example 108, 3-(1-o-Tolyl-ethylamino)-azetidine-1-carboxylic acid [4-(4-fluoro-phenoxy)-phenyl]-amide], the IC50 falls from 0.54 µM to 0.27 µM (2-fold).

`Cc1ccccc1C(C)N(C)C1CN(C(=O)Nc2cccc(C(F)(F)F)c2)C1` (stereo not shown) [Example 96, 3-[Methyl-(1-o-tolyl-ethyl)-amino]-azetidine-1-carboxylic acid (3-trifluoromethyl-phenyl)-amide] and `CC(c1ccccc1Cl)N(C)C1CN(C(=O)Nc2cccc(C(F)(F)F)c2)C1` (stereo not shown) [Example 97, 3-{[1-(2-Chloro-phenyl)-ethyl]-methyl-amino}-azetidine-1-carboxylic acid (3-trifluoromethyl-phenyl)-amide] are within 1.5-fold of each other in IC50: 3.02 µM for the first, 3.64 µM for the second.

First: CN(C1CN(C(=O)Nc2ccc(Oc3ccccc3)cc2)C1)C(C)(C)c1ccccc1 [Example 99, 3-[Methyl-(1-methyl-1-phenyl-ethyl)-amino]-azetidine-1-carboxylic acid (4-phenoxy-phenyl)-amide]
Second: Cc1ccc(C(C)N(C)C2CN(C(=O)Nc3ccc(Oc4ccccc4)cc3)C2)c(C)c1 (stereo not shown) [Example 105, 3-{[1-(2,4-Dimethyl-phenyl)-ethyl]-methyl-amino}-azetidine-1-carboxylic acid (4-phenoxy-phenyl)-amide]
The IC50 of the first is 1.5-fold higher: 0.63 µM for the first, 0.42 µM for the second.

Going from `CC(c1ccc(F)cc1Cl)N(C)C1CN(C(=O)Nc2cccc(Oc3ccccc3)c2)C1` (stereo not shown) [Example 100, 3-{[1-(2-Chloro-4-fluoro-phenyl)-ethyl]-methyl-amino}-azetidine-1-carboxylic acid (3-phenoxy-phenyl)-amide] to `CC(c1ccc(F)cc1)N(C)C1CN(C(=O)Nc2cccc(Oc3ccccc3)c2)C1` (stereo not shown) [Example 109, 3-{[1-(4-Fluoro-phenyl)-ethyl]-methyl-amino}-azetidine-1-carboxylic acid (3-phenoxy-phenyl)-amide], the IC50 falls from 1.21 µM to 0.47 µM (2.6-fold). The second is the more potent here.

First: Cc1ccc(C(C)NC2CN(C(=O)Nc3ccc(Oc4ccccc4)cc3)C2)c(C)c1 (stereo not shown) [Example 101, 3-[1-(2,4-Dimethyl-phenyl)-ethylamino]-azetidine-1-carboxylic acid (4-phenoxy-phenyl)-amide]
Second: Cc1cc(F)ccc1C(C)NC1CN(C(=O)Nc2ccc(Oc3ccccc3)cc2)C1 (stereo not shown) [Example 111, 3-[1-(4-Fluoro-2-methyl-phenyl)-ethylamino]-azetidine-1-carboxylic acid (4-phenoxy-phenyl)-amide]
The IC50 of the first is 2.2-fold lower: 0.29 µM for the first, 0.63 µM for the second. The first is the more potent here.

`CC(NC1CN(C(=O)Nc2cccc(Oc3ccccc3)c2)C1)c1ccccc1Cl` (stereo not shown) [Example 102, 3-[1-(2-Chloro-phenyl)-ethylamino]-azetidine-1-carboxylic acid (3-phenoxy-phenyl)-amide] and `Cc1ccccc1C(C)NC1CN(C(=O)Nc2cccc(Oc3ccccc3)c2)C1` (stereo not shown) [Example 106, 3-(1-o-Tolyl-ethylamino)-azetidine-1-carboxylic acid (3-phenoxy-phenyl)-amide] are within 1.5-fold of each other in IC50: 0.8 µM for the first, 0.56 µM for the second.

`CC(NC1CN(C(=O)Nc2cccc(Oc3ccccc3)c2)C1)c1ccc(F)cc1` (stereo not shown) [Example 103, 3-[1-(4-Fluoro-phenyl)-ethylamino]-azetidine-1-carboxylic acid (3-phenoxy-phenyl)-amide] and `Cc1cc(F)ccc1C(C)NC1CN(C(=O)Nc2cccc(Oc3ccccc3)c2)C1` (stereo not shown) [Example 112, 3-[1-(4-Fluoro-2-methyl-phenyl)-ethylamino]-azetidine-1-carboxylic acid (3-phenoxy-phenyl)-amide] are within 1.5-fold of each other in IC50: 0.73 µM for the first, 0.66 µM for the second.

`Cc1ccccc1C(C)NC1CN(C(=O)Nc2ccc(C(F)(F)F)cc2)C1` (stereo not shown) [Example 104, 3-(1-o-Tolyl-ethylamino)-azetidine-1-carboxylic acid (4-trifluoromethyl-phenyl)-amide] and `Cc1cc(F)ccc1C(C)NC1CN(C(=O)Nc2ccc(C(F)(F)F)cc2)C1` (stereo not shown) [Example 114, 3-[1-(4-Fluoro-2-methyl-phenyl)-ethylamino]-azetidine-1-carboxylic acid (4-trifluoromethyl-phenyl)-amide] are within 1.5-fold of each other in IC50: 2.54 µM for the first, 2.3 µM for the second.

First: Cc1ccccc1C(C)N(C)C1CN(C(=O)Nc2cccc(Oc3ccccc3)c2)C1 (stereo not shown) [Example 107, 3-[Methyl-(1-o-tolyl-ethyl)-amino]-azetidine-1-carboxylic acid (3-phenoxy-phenyl)-amide]
Second: Cc1ccccc1C(C)N(C)C1CN(C(=O)Nc2ccc(C(F)(F)F)cc2)C1 (stereo not shown) [Example 110, 3-[Methyl-(1-o-tolyl-ethyl)-amino]-azetidine-1-carboxylic acid (4-trifluoromethyl-phenyl)-amide]
The IC50 of the first is 4.4-fold lower: 0.51 µM for the first, 2.24 µM for the second. The first is the more potent here.

`Cc1cc(F)ccc1C(C)NC1CN(C(=O)Nc2cccc(C(F)(F)F)c2)C1` (stereo not shown) [Example 113, 3-[1-(4-Fluoro-2-methyl-phenyl)-ethylamino]-azetidine-1-carboxylic acid (3-trifluoromethyl-phenyl)-amide] and `COc1ccc(C(C)NC2CN(C(=O)Nc3ccc(C(F)(F)F)cc3)C2)cc1` (stereo not shown) [Example 115, 3-[1-(4-Methoxy-phenyl)-ethylamino]-azetidine-1-carboxylic acid (4-trifluoromethyl-phenyl)-amide] are within 1.5-fold of each other in IC50: 2.84 µM for the first, 2.43 µM for the second.

In the case of `Cc1cccc(C(C)NC2CN(C(=O)Nc3ccc(Oc4ccccc4)cc3)C2)c1` (stereo not shown) [Example 118, 3-(1-m-Tolyl-ethylamino)-azetidine-1-carboxylic acid (4-phenoxy-phenyl)-amide], the IC50 is reported as 0.43 µM.
